Measured values from patent publication US20250101061A1, “UPREGULATION OF FERRITIN HEAVY CHAIN 1 EXPRESSION” (HBC Immunology Inc., priority 2022, published 2025).
Several values for one entry are separate records, joined by “and”; a condition that tells them apart may be missing. Equal entries are not always repeated.

How the values were obtained:
FTH1 = FTH1 gene expression in human skeletal muscle cells (HSkMC) by qRT-PCR; format: cell-based; conditions: for FTH1 Fold Change at 0.625 μM / FTH1 Fold Change at 1.25 μM / FTH1 Fold Change at 2.5 μM / FTH1 Fold Change at 5 μM / FTH1 Fold Change at 10 μM: average of triplicate (SD ≤ 0.3); for FTH1 Fold Change, Average / FTH1 Fold Change (individual runs): SPH 100 μM or synthetic oligopeptide 10 μM, about 12 hours; for FTH1 Fold Change (individual runs): triplicate runs
Procedure: A cell line derived from human skeletal muscle was selected to assess the effect of SPH and oligopeptides on gene expression. HSkMC (PCS-950-010) obtained from ATCC (Manassas, VA) were propagated in Mesenchymal Stem Cell Basal Medium (ATCC) reduced serum medium supplemented with Primary Skeletal Cell Muscle Growth Kit (ATCC) that contains L-Glutamine (10 mM), Dexamethasone ([…]), rh epidermal growth factor (5 ng/ml), rh FGF-b (5 ng/ml), rh Insulin (25 μg/mL), and fetal bovine serum (4%), on 100 mm cell culture dishes. For this assay, the HSkMC cells were seeded in 24 well plates at a cell density of 1×10^4 cells/cm^2 and maintained at 37° C. in a humidified 5% CO2 atmosphere. […]
Total RNA was extracted using the UPzol reagent for the cell pellets, followed by a DNAse treatment (DNAse TURBO), using the manufacturer's protocols. Complementary DNA (cDNA) was synthesized with the High Capacity cDNA Reverse Transcription Kit (Applied Biosystems) using random hexamers. Gene expression levels were measured by qRT-PCR.
1 μl of cDNA corresponding to 50 ng of reverse transcribed RNA was amplified by Qpcr (QuantStudio™ 6 Flex Real-Time PCR System), using the TaqMan™ Universal PCR Master Mix (Catalog No. 4304437) and a TaqMan™ assay (Roche Molecular Systems, Inc., Pleasanton, CA).
FTH1 gene expression was estimated relative to expression of the housekeeping gene, beta-actin (ACTB), following the standard formula: […]
2-ΔCt. TaqMan™ probe IDs used were: (i) FTH1, Hs01694011_s1; and (ii) ACTB, Hs01060665_g1. All experiments were run in triplicate.

[1] = test system: Immortalized human astrocytes (P10251-IM); assay: Protection of human astrocytes from hemin-induced injury (LDH release assay); format: cell-based; conditions: 24 hr pre-treatment: SPH 160 μM, oligopeptide 10 μM, collagen control 160 μM; then 30 μM hemin 6 hrs; scaled to 0.1% Triton X-100 lysis
Procedure: Immortalized human astrocytes (P10251-IM) were obtained from Innoprot, Spain and prepared under conditions recommended by the supplier. At 90% confluency, the P10251-IM cells were rinsed with 8 ml of DPBS and 2 ml of the T/E Solution (prepared as per Innoprot procedure), then added into an […] and gently rocked so that the P10251-IM cells would be completely covered. The flask was subsequently incubated at 37° C. for 2 minutes. Then 5 ml of fetal bovine serum (FBS) and the T/E solution from the flask were added into a 50 ml conical centrifuge tube. The flask was incubated for an additional 2 minutes, and the P10251-IM cells dislodged from the surface by gentle tapping. The P10251-IM cells were then transferred to the 50 ml conical centrifuge tube with 5 ml of TNS solution. The tube was centrifuged at 1000 rpm for 5 minutes. Then the P10251-IM cells were resuspended in the culture medium, counted, and plated in a poly-L-lysine-coated culture plate at 1×10^4 cell density. Cells were tested after they were incubated for 21 days in vitro.
Confluent P10251-IM cell cultures were washed and then pre-treated with medium alone, or medium supplemented with SPH (160 μM) or an oligopeptide (10 μM) for 24 hr at 37° C. Commercial collagen peptide (Vital Protein) at 160 μM concentration and sterile water were used as negative controls. The P10251-IM cells were subsequently treated with 30 μM hemin in serum-free medium consisting of MEM with 10 mM glucose (MEM10) for 6 hrs.
P10251-IM astrocyte cultures that were […] with 30 μM hemin sustained widespread cell injury. Cell viability was quantified using the lactate dehydrogenase (LDH) release assay as previously described (Chen and Regan, Curr Neurovasc Res, 2:189-196, 2005). Briefly, quantification of the protective effects of SPH and oligopeptides were assessed by determining the mean percentage LDH released, scaled to the complete lysis control culture which was treated with 0.1% Triton X-100 (considered to release 100% of culture LDH).

Substance | FTH1 Fold Change at 0.625 μM (FTH1) | FTH1 Fold Change at 1.25 μM (FTH1) | FTH1 Fold Change at 2.5 μM (FTH1) | FTH1 Fold Change at 5 μM (FTH1) | FTH1 Fold Change at 10 μM (FTH1) | FTH1 Fold Change, Average (FTH1) | FTH1 Fold Change (individual runs) (FTH1) | % LDH Release (individual runs) [1] | % LDH Release, Average [1]
REESGEP [FT-002] | 1.0 fold | 1.0 fold | 1.1 fold | 1.4 fold | 2.2 fold | 2.2 fold | 2.1 fold and 2.0 fold and 2.5 fold |  | 
KEEDEESGE [FT-003] |  |  |  |  |  | 1.1 fold | 1.1 fold and 1.0 fold and 1.3 fold |  | 
KPREESGE [FT-004] | 1.1 fold | 1.1 fold | 1.1 fold | 1.3 fold | 2.1 fold | 2.1 fold | 2.1 fold and 2.2 fold and 1.9 fold |  | 
LDEESGEP [FT-005] |  |  |  |  |  | 1.8 fold | 1.7 fold and 1.8 fold (2×) |  | 
Triton X-100 [0.1% Triton X-100, reference compound] |  |  |  |  |  |  |  | 100% (2×) and 99% | 100%
REESGE [FT-001] |  |  |  |  |  | 1.7 fold | 1.6 fold and 1.8 fold (2×) |  | 
